Measurements from article PMC11638965, “Leveraging Dual-Ligase Recruitment to Enhance Protein Degradation via a Heterotrivalent Proteolysis Targeting Chimera” (Journal of the American Chemical Society, 2024).

Tests used:
HEK293 cells = assay: TMT mass spectrometry proteomics; format: cell-based, Human; settings: 250 nM, 4 h; for proteins significantly depleted/downregulated, proteome-wide: 7276 proteins detected, relative to DMSO
Experimental: S-Trap micro spin column digestion was performed according to the manufacturer’s protocol. Briefly, HEK293 cells were treated with DMSO, 250 nM neg-cis-AB3067 (95) or 250 nM AB3067 (27) for 4 h; cells were harvested and washed with PBS and spun. Cell pellets were solubilized in 5% SDS, 50 mM triethylammonium bicarbonate, reduced with 100 mM DTT solution and alkylated with iodoacetamide to a final concentration of 40 mM. Aqueous phosphoric acid was added to a final concentration of 1.2%. Protein particulate was formed by adding S-Trap binding buffer [90% aqueous methanol, 100 mM TEAB (pH 7.1)]. The mixture was placed on S-Trap micro 1.7 mL columns and centrifuged at 4000 × g for 10 s. Columns were washed with 150 μL of S-Trap binding buffer five times and centrifuged at 4000 × g for 10 s. Samples were digested with 2 μg of trypsin (Promega) at 37 °C for four h. Peptides were eluted with 40 μL of 50 mM TEAB followed by 40 μL of 0.2% aqueous formic acid, and peptides were finally vacuum-dried. TMT15plex labeling of DMSO, 250 nM neg-cis-AB3067 (95) or 250 nM AB3067 (27) conditions were performed, with five biological replicates for each condition and peptide cleanup was performed according to the manufacturer’s protocol. After checking the labeling efficiency, samples were combined, desalted, and dried under vacuum. TMT samples were fractionated using offline high-pH reverse-phase chromatography. Peptides were separated, concatenated to 22 fractions, dried, and peptides redissolved in 5% formic acid and analyzed by LC–MS.
The raw mass spectrometric data were loaded into MaxQuant. Enzyme specificity was set to that of trypsin/P, allowing for cleavage of N-terminal to proline residues and between aspartic acid and proline residues. Other parameters used were as follows: (i) variable modifications—methionine oxidation, protein N-acetylation; (ii) fixed modifications, cysteine carbamidomethylation; (iii) database: Uniprot; -Human (iv) labels: 15-plex TMT (v) MS/MS tolerance: FTMS- 20 ppm, (vi) minimum peptide length, 7; (vii) maximum missed cleavages, 2; and (viii) and (ix) PSM and Protein false discovery rate, 1%. Reporter ion intensities (corrected) results from MaxQuant were imported into excel for bioinformatic analysis. The normalized corrected reporter ion intensities for each label were used to calculate ratios, and all “Contaminant,″ “Reverse”, and “Only identified by site” proteins were removed from the data. Proteins above or below twofold change [log2(2) = 1], and a nominal p-value less than 0.03 [−log10(0.03) = 1.5] were considered as differentially expressed proteins. The final volcano plot was produced in GraphPad prism 10 version [10.2.2].

BRD4 = BRD4 (Homo sapiens, UniProt O60885); assay: NanoBRET ubiquitination assay; format: cell-based; settings: parental vs CRBN KO or VHL KO HiBiT-BRD4 cells, HaloTag-Ubiquitin, 12 nM to 3 μM, 4 h
Experimental: NanoBRET ubiquitination experiments were conducted using Promega kit ND2690. HEK293 HiBiT-BRD4 parental, VHL KO, or CRBN KO cells (all stably expressing LgBiT) were plated in 6-well plates at 800,000 cells/well and allowed to adhere for 4–6 h prior to being transfected with 2 μg of HaloTag-Ubiquitin Fusion Vector. Cells were allowed to express overnight, then were trypsinized and resuspended in Opti-MEM (reduced serum, no phenol red) 4% FBS at a concentration of 220,000 cells/mL. HaloTag NanoBRET 618 ligand was added at a final concentration of 100 nM to cells (with a portion of cells retained without ligand for use as no-acceptor controls for normalization). 90 μL of cells were then dispensed into each well of a tissue culture 96-well plate and cells were allowed to adhere overnight. The next day, media was aspirated from cells and replaced with 90 μL of a 1× solution of Opti-MEM 4% FBS containing a 1:100 dilution of Nano-Glo Vivazine substrate. […] 10 μL of each 10 × PROTAC was added to each well and the plate was immediately placed in a ClarioStar plate reader (prewarmed to 37 °C) where donor emission (460 nm) and acceptor emission (618 nm) was collected every 3 min for 4 h. NanoBRET ratios were calculated as described in the ternary complex assay.

VHL = target: T1, VHL (Homo sapiens, UniProt P40337); assay: Western blot dose-response degradation in HEK293 cells; format: cell-based; settings: 1 μM to 100 pM, 6 h
T1 construct: host or cells: HEK293, transient
T1 sequence (P40337 whole entry): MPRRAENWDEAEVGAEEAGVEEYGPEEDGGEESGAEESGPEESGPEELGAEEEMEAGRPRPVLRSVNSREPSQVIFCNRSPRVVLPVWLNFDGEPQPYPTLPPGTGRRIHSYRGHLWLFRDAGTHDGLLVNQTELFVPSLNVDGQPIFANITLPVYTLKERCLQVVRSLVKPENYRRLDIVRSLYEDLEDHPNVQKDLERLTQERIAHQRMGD
Experimental: HEK293 cells were obtained from ATCC. HEK293 was cultured in DMEM supplemented with 10% (v/v) fetal bovine serum (FBS), 1% […] and 1% (v/v) penicillin/streptomycin (pen/strep) at 37 °C, 5% CO2, and 95% humidity.
HEK293 cells were plated at a density of 5 × 10^5 cells per well of a six well plate a day prior to initiation of the experiment. Compounds were dissolved to a 10 mM concentrated stock solution in DMSO from which the compounds were further diluted to a working concentration range of 1 μM to 100 pM in DMEM and was subsequently added to cells at the initiation of the experiment. An additional vehicle control was added to cells alongside compound treatments. Cells were left to incubate with compound for 6 h at 37 °C, 5% CO2, and 95% humidity. Cells were then subsequently washed twice with PBS before being harvested in RIPA buffer supplemented with protease inhibitor cocktail and Benzonase Nuclease before being store at −20 °C.
Protein concentration was determined using the BCA assay. Samples were then prepared in LDS buffer containing 5% 1 M DTT and subsequently loaded onto NuPAGE 4–12% Bis-Tris Midi gels, followed by the transfer of the proteins onto nitrocellulose membranes. The membranes were blocked for 1 h prior to incubation with the primary antibodies using 5% Milk TBST. Membranes were incubated at 4 °C in either BRD4(Ab128874), BRD3(Ab50818), BRD2(Ab139690), VHL(CST#68547) and CRBN(CST#71810) primary antibody overnight. Following overnight incubation, the membranes were incubated with complementary IRDye 800CW secondary antibody and a hFAB Rhodamine Anti-Tubulin Primary Antibody (loading control) for 1 h and then imaged with a Bio-Rad imager. All Western blots were analyzed for band intensities using Image Lab (Bio-Rad). The data extracted from these blots were then plotted and analyzed using Prism (v. 10.2.2, GraphPad). Linear regression curve fitting was used to calculate pDC50 values. The standard deviation of the pDC50 was calculated for all compounds that had two independent repeats and the standard error of the mean calculated for all compounds that had three independent repeats. All Western blotting figures were developed in Adobe illustrator.

SMILES	CRBN abundance (HEK293 cells)	EID2 abundance (HEK293 cells)	proteins significantly depleted/downregulated, proteome-wide (HEK293 cells)	ubiquitination of BRD4 (in words) (BRD4)	VHL degradation (in words) (VHL)
Cc1ncsc1-c1ccc([C@H](C)NC(=O)[C@@H]2C[C@@H](O)CN2C(=O)[C@@H](NC(=O)COCC(C)(COCCOCCOCCNc2cc3c(cc2F)C(=O)N(C2CCC(=O)NC2=O)C3=O)COCCOCCOCCOC(=O)C[C@@H]2N=C(c3ccc(Cl)cc3)c3c(sc(C)c3C)-n3c(C)nnc32)C(C)(C)C)cc1 (mixture of isomers) [AB3067 (27), (17S)-11-((2-(2-(2-((2-(2,6-dioxopiperidin-3-yl)-6-fluoro-1,3-dioxoisoindolin-5-yl)amino)ethoxy)ethoxy)ethoxy)methyl)-17-((2S,4R)-4-hydroxy-2-(((S)-1-(4-(4-methylthiazol-5-yl)phenyl)ethyl)carbamoyl)pyrrolidine-1-carbonyl)-11,18,18-trimethyl-15-oxo-3,6,9,13-tetraoxa-16-azanonadecyl 2-((S)-4-(4-chlorophenyl)-2,3,9-trimethyl-6H-thieno[3,2-f][1,2,4]triazolo[4,3-a][1,4]diazepin-6-yl)acetate]	not significantly depleted	significantly downregulated	all three BET proteins, BRD2, BRD3 and BRD4, were significantly depleted	occurs more rapidly than in either the CRBN KO or VHL KO cells	
Cc1ncsc1-c1ccc(CNC(=O)[C@@H]2C[C@@H](O)CN2C(=O)[C@@H](NC(=O)COCC(COCCOCCOCCNc2cc3c(cc2F)C(=O)N(C2CCC(=O)NC2=O)C3=O)(COCCOCCOCCOC(=O)C[C@@H]2N=C(c3ccc(Cl)cc3)c3c(sc(C)c3C)-n3c(C)nnc32)COCCOCCOCCOC(=O)C[C@@H]2N=C(c3ccc(Cl)cc3)c3c(sc(C)c3C)-n3c(C)nnc32)C(C)(C)C)cc1 (mixture of isomers) [AB3124 (86)]					no observed degradation of VHL
Cc1ncsc1-c1ccc([C@H](C)NC(=O)[C@@H]2C[C@H](O)CN2C(=O)[C@@H](NC(=O)COCC(C)(COCCOCCOCCNc2cc3c(cc2F)C(=O)N(C2CCC(=O)N(C)C2=O)C3=O)COCCOCCOCCOC(=O)C[C@@H]2N=C(c3ccc(Cl)cc3)c3c(sc(C)c3C)-n3c(C)nnc32)C(C)(C)C)cc1 (mixture of isomers) [neg-cis-AB3067 (95), (17S)-11-((2-(2-(2-((6-fluoro-2-(1-methyl-2,6-dioxopiperidin-3-yl)-1,3-dioxoisoindolin-5-yl)amino)ethoxy)ethoxy)ethoxy)methyl)-17-((2S,4S)-4-hydroxy-2-(((S)-1-(4-(4-methylthiazol-5-yl)phenyl)ethyl)carbamoyl)pyrrolidine-1-carbonyl)-11,18,18-trimethyl-15-oxo-3,6,9,13-tetraoxa-16-azanonadecyl 2-((S)-4-(4-chlorophenyl)-2,3,9-trimethyl-6H-thieno[3,2-f][1,2,4]triazolo[4,3-a][1,4]diazepin-6-yl)acetate]			no protein was significantly downregulated		
